System: 885512-296-R-J2-PDC complex spheroid growth, % test/control
Test: Anticancer human tumor 885512-296-R-J2-PDC patient-derived breast carcinoma cell line growth inhibition [Asc]
Settings: for IC50: curve of first compound; for viability, T/C: stronger effect = lower value
Outline: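 Tumor cells were grown as multicellular spheroids with stromal HUVEC and mesenchymal stem cells and treated singly or in combination. Concentrations fell in half-log steps from the clinical Cmax, or from 10 microM where none was known.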

[1] = second compound 0.01 µM, first compound 0.00316 µM
[2] = second compound 0.01 µM, first compound 0.01 µM
[3] = second compound 0.01 µM, first compound 0.0316 µM
[4] = second compound 0.01 µM, first compound 0.1 µM
[5] = second compound 0.0316 µM, first compound 0.00316 µM
[6] = second compound 0.0316 µM, first compound 0.01 µM
[7] = second compound 0.0316 µM, first compound 0.0316 µM
[8] = second compound 0.0316 µM, first compound 0.1 µM
[9] = second compound 0.1 µM, first compound 0.00316 µM
[10] = second compound 0.1 µM, first compound 0.01 µM
[11] = second compound 0.1 µM, first compound 0.0316 µM
[12] = second compound 0.1 µM, first compound 0.1 µM
[13] = second compound 0.316 µM, first compound 0.00316 µM
[14] = second compound 0.316 µM, first compound 0.01 µM
[15] = second compound 0.316 µM, first compound 0.0316 µM
[16] = second compound 0.316 µM, first compound 0.1 µM
[17] = second compound 1 µM, first compound 0.00316 µM
[18] = second compound 1 µM, first compound 0.01 µM
[19] = second compound 1 µM, first compound 0.0316 µM
[20] = second compound 1 µM, first compound 0.1 µM
[21] = second compound 0.01 µM, first compound 0.316 µM
[22] = second compound 0.01 µM, first compound 1 µM
[23] = second compound 0.0316 µM, first compound 0.316 µM
[24] = second compound 0.0316 µM, first compound 1 µM
[25] = second compound 0.1 µM, first compound 0.316 µM
[26] = second compound 0.1 µM, first compound 1 µM
[27] = second compound 0.316 µM, first compound 0.316 µM
[28] = second compound 0.316 µM, first compound 1 µM
[29] = second compound 1 µM, first compound 0.316 µM
[30] = second compound 1 µM, first compound 1 µM
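Note: spheroids exposed to compounds for seven days.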
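Throughout, for viability, T/C: 100% = DMSO vehicle control wells.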

Cc1nc(N2CCC3(CC2)COC(C)C3N)c(CO)nc1Sc1ccnc(N)c1Cl (stereo not given) + CCN1C(C(=O)NC23CCC(C(=O)O)(CC2)CC3)C(c2cccc(Cl)c2F)C2(C(=O)Nc3cc(Cl)ccc32)C12CCCCC2
IC50 (second compound 0.03 µM): 0.361 µM | IC50 (second compound 0.0949 µM): 0.134 µM | IC50 (second compound 0.3 µM): 0.165 µM | IC50 (second compound 0.949 µM): 0.0598 µM | IC50 (second compound 3 µM): < 0.00949 µM | viability, T/C (second compound 0.03 µM, first compound 0.00949 µM): 90.6% | viability, T/C (second compound 0.03 µM, first compound 0.03 µM): 79% | viability, T/C (second compound 0.03 µM, first compound 0.0949 µM): 59.8% | viability, T/C (second compound 0.03 µM, first compound 0.3 µM): 51.6% | viability, T/C (second compound 0.03 µM, first compound 0.949 µM): 45.2% | viability, T/C (second compound 0.03 µM, first compound 3 µM): 35.4% | viability, T/C (second compound 0.0949 µM, first compound 0.00949 µM): 96.5% | viability, T/C (second compound 0.0949 µM, first compound 0.03 µM): 78.9% | viability, T/C (second compound 0.0949 µM, first compound 0.0949 µM): 51.2% | viability, T/C (second compound 0.0949 µM, first compound 0.3 µM): 45.4% | viability, T/C (second compound 0.0949 µM, first compound 0.949 µM): 41.3% | viability, T/C (second compound 0.0949 µM, first compound 3 µM): 35.5% | viability, T/C (second compound 0.3 µM, first compound 0.00949 µM): 82.3% | viability, T/C (second compound 0.3 µM, first compound 0.03 µM): 60.2% | viability, T/C (second compound 0.3 µM, first compound 0.0949 µM): 51.6% | viability, T/C (second compound 0.3 µM, first compound 0.3 µM): 53.1% | viability, T/C (second compound 0.3 µM, first compound 0.949 µM): 42.8% | viability, T/C (second compound 0.3 µM, first compound 3 µM): 36.9% | viability, T/C (second compound 0.949 µM, first compound 0.00949 µM): 59.3% | viability, T/C (second compound 0.949 µM, first compound 0.03 µM): 51.1% | viability, T/C (second compound 0.949 µM, first compound 0.0949 µM): 46.9% | viability, T/C (second compound 0.949 µM, first compound 0.3 µM): 46.2% | viability, T/C (second compound 0.949 µM, first compound 0.949 µM): 39.1% | viability, T/C (second compound 0.949 µM, first compound 3 µM): 35.2% | viability, T/C (second compound 3 µM, first compound 0.00949 µM): 39.3% | viability, T/C (second compound 3 µM, first compound 0.03 µM): 35% | viability, T/C (second compound 3 µM, first compound 0.0949 µM): 28.1% | viability, T/C (second compound 3 µM, first compound 0.3 µM): 32% | viability, T/C (second compound 3 µM, first compound 0.949 µM): 30.3% | viability, T/C (second compound 3 µM, first compound 3 µM): 27.1%

Cn1ncnc1[C@H]1c2n[nH]c(=O)c3cc(F)cc(c23)N[C@@H]1c1ccc(F)cc1 + CNC(C)C(=O)NC1CN(S(=O)(=O)c2cccc(S(=O)(=O)N3CCC4CCC(C(=O)NC(c5ccccc5)c5ccccc5)N4C(=O)C(NC(=O)C(C)NC)C3)c2)CCC2CCC(C(=O)NC(c3ccccc3)c3ccccc3)N2C1=O
IC50 (second compound 0.01 µM): 0.0262 µM | IC50 (second compound 0.0316 µM): 0.0176 µM | IC50 (second compound 0.1 µM): 0.0234 µM | IC50 (second compound 0.316 µM): 0.0153 µM | IC50 (second compound 1 µM): 0.0213 µM | viability, T/C (second compound 0.01 µM, first compound 0.000316 µM): 86% | viability, T/C (second compound 0.01 µM, first compound 0.001 µM): 71.1% | viability, T/C [1]: 73.5% | viability, T/C [2]: 63.4% | viability, T/C [3]: 47.7% | viability, T/C [4]: 26.2% | viability, T/C (second compound 0.0316 µM, first compound 0.000316 µM): 98.5% | viability, T/C (second compound 0.0316 µM, first compound 0.001 µM): 96.5% | viability, T/C [5]: 92.3% | viability, T/C [6]: 60.5% | viability, T/C [7]: 40.1% | viability, T/C [8]: 31.2% | viability, T/C (second compound 0.1 µM, first compound 0.000316 µM): 102% | viability, T/C (second compound 0.1 µM, first compound 0.001 µM): 100% | viability, T/C [9]: 90.8% | viability, T/C [10]: 70.5% | viability, T/C [11]: 42.9% | viability, T/C [12]: 22.4% | viability, T/C (second compound 0.316 µM, first compound 0.000316 µM): 98% | viability, T/C (second compound 0.316 µM, first compound 0.001 µM): 100% | viability, T/C [13]: 94.6% | viability, T/C [14]: 56% | viability, T/C [15]: 42.4% | viability, T/C [16]: 27.6% | viability, T/C (second compound 1 µM, first compound 0.000316 µM): 108% | viability, T/C (second compound 1 µM, first compound 0.001 µM): 97.1% | viability, T/C [17]: 98.2% | viability, T/C [18]: 65.6% | viability, T/C [19]: 42.5% | viability, T/C [20]: 26.2%

O=C(c1cc(Cc2n[nH]c(=O)c3ccccc23)ccc1F)N1CCN(C(=O)C2CC2)CC1 + CNC(C)C(=O)NC1CN(S(=O)(=O)c2cccc(S(=O)(=O)N3CCC4CCC(C(=O)NC(c5ccccc5)c5ccccc5)N4C(=O)C(NC(=O)C(C)NC)C3)c2)CCC2CCC(C(=O)NC(c3ccccc3)c3ccccc3)N2C1=O
IC50 (second compound 0.01 µM): 4.11 µM | IC50 (second compound 0.0316 µM): 2.96 µM | IC50 (second compound 0.1 µM): 3.93 µM | IC50 (second compound 0.316 µM): 3.85 µM | IC50 (second compound 1 µM): 3.63 µM | viability, T/C [3]: 95.6% | viability, T/C [4]: 96.4% | viability, T/C [21]: 95.6% | viability, T/C [22]: 94.5% | viability, T/C (second compound 0.01 µM, first compound 3.16 µM): 60.7% | viability, T/C (second compound 0.01 µM, first compound 10 µM): 13.5% | viability, T/C [7]: 97.1% | viability, T/C [8]: 101% | viability, T/C [23]: 99.6% | viability, T/C [24]: 84% | viability, T/C (second compound 0.0316 µM, first compound 3.16 µM): 48.2% | viability, T/C (second compound 0.0316 µM, first compound 10 µM): 14.4% | viability, T/C [11]: 97.9% | viability, T/C [12]: 98.2% | viability, T/C [25]: 106% | viability, T/C [26]: 86.2% | viability, T/C (second compound 0.1 µM, first compound 3.16 µM): 59.8% | viability, T/C (second compound 0.1 µM, first compound 10 µM): 10.6% | viability, T/C [15]: 101% | viability, T/C [16]: 106% | viability, T/C [27]: 102% | viability, T/C [28]: 89.3% | viability, T/C (second compound 0.316 µM, first compound 3.16 µM): 58.1% | viability, T/C (second compound 0.316 µM, first compound 10 µM): 12% | viability, T/C [19]: 96.1% | viability, T/C [20]: 97.8% | viability, T/C [29]: 95.4% | viability, T/C [30]: 87.2% | viability, T/C (second compound 1 µM, first compound 3.16 µM): 55% | viability, T/C (second compound 1 µM, first compound 10 µM): 13.1%

O=C(c1ccc(F)c(F)c1Nc1ccc(I)cc1F)N1CC(O)([C@@H]2CCCCN2)C1 + CNC(C)C(=O)NC1CN(S(=O)(=O)c2cccc(S(=O)(=O)N3CCC4CCC(C(=O)NC(c5ccccc5)c5ccccc5)N4C(=O)C(NC(=O)C(C)NC)C3)c2)CCC2CCC(C(=O)NC(c3ccccc3)c3ccccc3)N2C1=O
IC50 (second compound 0.01 µM): 0.094 µM | IC50 (second compound 0.0316 µM): 0.107 µM | IC50 (second compound 0.1 µM): 0.112 µM | IC50 (second compound 0.316 µM): 0.126 µM | IC50 (second compound 1 µM): 0.159 µM | viability, T/C [1]: 92.1% | viability, T/C [2]: 80.5% | viability, T/C [3]: 59% | viability, T/C [4]: 50.2% | viability, T/C [21]: 37.5% | viability, T/C [22]: 15.1% | viability, T/C [5]: 98.3% | viability, T/C [6]: 84.3% | viability, T/C [7]: 78% | viability, T/C [8]: 48% | viability, T/C [23]: 32% | viability, T/C [24]: 16.6% | viability, T/C [9]: 99.5% | viability, T/C [10]: 95.8% | viability, T/C [11]: 78.6% | viability, T/C [12]: 47.8% | viability, T/C [25]: 35.1% | viability, T/C [26]: 15.9% | viability, T/C [13]: 102% | viability, T/C [14]: 99.5% | viability, T/C [15]: 82.5% | viability, T/C [16]: 53.8% | viability, T/C [27]: 31.4% | viability, T/C [28]: 16.5% | viability, T/C [17]: 103% | viability, T/C [18]: 96.2% | viability, T/C [19]: 89.7% | viability, T/C [20]: 60.9% | viability, T/C [29]: 32.8% | viability, T/C [30]: 16.8%

From PubChem BioAssay AID1963447 (Molecular Pharmacology Branch, DTP, NCI, 2024)
